From patent US20140249156A1, “Treatment Of Blood Lipid Abnormalities And Other Conditions” (GlaxoSmithKline LLC, priority 2011, published 2014)

Tests used:
[1] = tested on: male Crl:CD(SD) rats; assay: Appearance of radiolabeled cholesterol (chylomicrons) in circulation after labeled oral fat challenge with triton block; format: in vivo, rat; conditions: vs vehicle; for appearance of 3H cholesterol (CPM) in the serum: 3H cholesterol tracer
From the text: A rat model (male Crl:CD(SD) rats) was used for the evaluation of a diverse set of GPR119 agonists. The objective of the studies was to determine if administration of a single dose of an agonist affects the appearance of chylomicrons containing either ^3H- or ^14C-cholesterol in circulation of fasted Crl:CD(SD) rats.
In order to track chylomicron appearance in circulation, radiolabeled cholesterol (with or without radiolabeled retinol) was co-administered with olive oil by oral gavage. Both tracers label the chylomicron core as the cholesterol administered is esterified in the enterocyte, packaged into the chylomicron, and released into the lymphatic system for transport to the systemic circulation. In order to assess appearance and accumulation of the newly formed chylomicrons in circulation, triton was administered by intravenous injection to block the clearance of these particles from circulation.
The rats had been previously instrumented with an implanted jugular catheter to facilitate obtaining multiple blood samples without stress to the animal. Rats were fasted overnight prior to labeled oral fat challenge. All compounds were dosed one hour prior to the challenge test. Treatment groups were randomized by body weight.
All compounds were administered at 5 mL/kg by the oral route as suspensions in hydroxypropylmethylcellulose (0.5%) which contained 0.1% Tween 80. Triton (250 mg/kg) was administered by intravenous injection immediately prior to an oral gavage of the tracer mixed with olive oil. Total volume of olive oil administered per rat was 2 mL, which contained (per 2 mL olive oil) either:
5-10 uCi ^14C-cholesterol (alone or in combination with 80 uCi ^3H-retinol)
5-20 uCi ^3H-cholesterol.
Blood samples were taken at the following time points: 0.25, 0.5, 0.75, 1, 2, 3, 4, 5 and 6 hours post olive oil gavage. Samples were spun at 8,000×g for 8 minutes at room temperature and 100 uL aliquots of serum counted for ^3H or ^14C.

[2] = tested on: humans; conditions: cited from earlier work
[3] = single oral dose 30 mg/kg one hour before olive oil containing 14C cholesterol
[4] = previously discovered, patients

Cc1ncccc1Oc1ncnc(OC2CCN(C(=O)OC(C)C)CC2)c1C.Cl [Compound G, 1-methylethyl 4-({5-methyl-6-[(2-methyl-3-pyridinyl)oxy]-4-pyrimidinyl}oxy)-1-piperidinecarboxylate hydrochloride]
appearance of 3H cholesterol (CPM) in the serum ([1]; single oral dose 30 mg/kg): significant reduced

Cc1cc(S(C)(=O)=O)ccc1N1CCc2c(OC3CCN(C(=O)OC(C)C)CC3)ncnc21 [Compound H, 1-methylethyl 4-({7-[2-methyl-4-(methylsulfonyl)phenyl]-6,7-dihydro-5H-pyrrolo[2,3-d]pyrimidin-4-yl}oxy)-1-piperidinecarboxylate]
appearance of 3H cholesterol (CPM) in the serum ([1]; single oral dose 30 mg/kg): significant reduced

CC(C)c1noc(N2CCC(COc3ccc(-c4ccc(S(C)(=O)=O)cc4)nc3)CC2)n1 [Compound A, 5-[({1-[3-(1-methylethyl)-1,2,4-oxadiazol-5-yl]-4-piperidinyl}methyl)oxy]-2-[4-(methylsulfonyl)phenyl]pyridine]
appearance of 3H cholesterol (CPM) in the serum ([1]; single oral dose 3 mg/kg): decreased | appearance of 14C labeled chylomicrons in circulation ([1]; single oral dose 3 mg/kg, olive oil containing 14C cholesterol): significantly reduced | appearance of 3H cholesterol (CPM) in the serum ([1]; single oral dose 10 mg/kg): decreased | appearance of 14C labeled chylomicrons in circulation ([1]; single oral dose 10 mg/kg, olive oil containing 14C cholesterol): significantly reduced | appearance of 14C labeled chylomicrons in circulation [1, 3]: significantly reduced | fasting ApoB/B100 ([2]; humans): reducing | fasting ApoB/B100:ApoA1 ratio ([2]; humans): reducing | fasting ApoE ([2]; humans): reducing | fasting HDL cholesterol ([2]; humans): increasing | fasting LDL cholesterol ([2]; humans): reduced | fasting LDL cholesterol:HDL cholesterol ratio ([2]; humans): reducing | fasting non-HDL cholesterol ([2]; humans): reducing | fasting plasma alanine aminotransferase ([2]; humans): reducing | fasting plasma uric acid ([2]; humans): reducing | fasting total cholesterol ([2]; humans): reducing | fasting total cholesterol:HDL cholesterol ratio ([2]; humans): reducing | fasting triglycerides ([2]; humans): reducing | prandial triglycerides ([2]; humans): reducing | rise in serum triglycerides that occurs following meals ([2]; patients treated with Compound A): significantly blunted | HDL cholesterol [2, 4]: raises | LDL cholesterol [2, 4]: lowers | total cholesterol [2, 4]: lowers

CC(C)n1nnc(N2CCC([C@H](C)Oc3cnc(-c4ccc(S(C)(=O)=O)cc4)cn3)CC2)n1 [Compound I, 2-[((1S)-1-{1-[2-(1-methylethyl)-2H-tetrazol-5-yl]-4-piperidinyl}ethyl)oxy]-5-[4-(methylsulfonyl)phenyl]pyrazine]
appearance of 3H cholesterol (CPM) in the serum ([1]; single oral dose 30 mg/kg): significant reduced

C[C@@H](OC1CCN(C(=O)OC(C)(C)C)CC1)c1nc(-c2ccc(S(C)(=O)=O)c(F)c2)no1 [Compound J, 1,1-dimethylethyl 4-[((1R)-1-{3-[3-fluoro-4-(methylsulfonyl)phenyl]-1,2,4-oxadiazol-5-yl}ethyl)oxy]-1-piperidinecarboxylate]
appearance of 3H cholesterol (CPM) in the serum ([1]; single oral dose 30 mg/kg): significant reduced

CC(C)c1noc(N2CCC([C@H](C)Oc3cnc(-c4ccc(S(C)(=O)=O)cc4)cn3)CC2)n1 [Compound B, 2-[((1S)-1-{1-[3-(1-methylethyl)-1,2,4-oxadiazol-5-yl]-4-piperidinyl}ethyl)oxy]-5-[4-(methylsulfonyl)phenyl]pyrazine]
appearance of 14C labeled chylomicrons in circulation [1, 3]: significantly reduced | appearance of 3H cholesterol (CPM) in the serum ([1]; single oral dose 30 mg/kg): decreased
